According to patent US20180325157A1, “A DIETARY SUPPLEMENT COMPRISING BETA-GLUCAN AND CASEIN HYDROLSATE FOR IMPROVING HEALTH AND GROWTH PERFORMANCE IN A MAMMAL” (University College Dublin, National University of Ireland, …, priority 2015, published 2018):
Values joined by “and” are separate entries in the source; they are usually repeats but may differ in a detail not shown here. Equal values may be shown once.

Legend:
weaning piglets = test: Body weight and growth performance of weaned piglets over 12 days; assay type: in vivo, pig
Excerpt: This study was designed in a completely randomized block design with 5 dietary groups. The dietary groups are as follows: 1) control diet, 2) control diet+ZnO, 3) control diet+casein hydrolysate, 4) control diet+(3 glucan and 5) control diet+casein hydrolysate+β glucan. The control diet used in this study was based on previous work by Walsh et al. (2013). The levels of casein hydrolysate used were based on previous experiment and the levels of β glucan, derived from yeast (S. cerevisiae), used were based on a previous study by Sweeney et al. (2012). Diets were formulated to contain similar concentrations of digestible energy (DE) (14.5 MJ/kg) and standardized ileal digestible (SID) lysine (12.5 g/kg) contents. All amino acids requirements were met relative to SID lysine (NRC, 1998). All diets were milled on site and fed in meal form for 12 days after weaning.
Forty weaned piglets [progeny of Landrace boars×(Large White×Landrace sow)] were weighed and blocked on the basis of initial live body weight (7.3±0.2 kg) and assigned to 1 of the 5 dietary treatment groups (n=8). Piglets were weighted individually at the beginning of the experiment (day 0=day of weaning), day 6 and day 12. The piglets were housed in groups of two on fully slatted floors (1.68×1.22 m). The ambient environmental temperature within the house was thermostatically controlled at 30° C. The feed was available ad libitum and water was available via nipple drinkers. Feed was available up to the final weighing and all remaining feed was weighed back for the purpose of calculating feed efficiency.
The current study was a complete randomised design experiment and data analysed using the general linear model procedure of the Statistical Analysis Institute (SAS, 2004). The individual pen represented the experimental unit for the performance analysis. All the data were checked initially for normality using the PROC univariate procedure in SAS (2004). The microbial counts were log transformed before statistical analysis. Probability values of less than 0.05 were used as the criterion for statistical significance. Intercorrelations between cytokines and cytokine regulatory genes was analysed in a correlation matrix using PASW 18 (SPSS for Windows, […]; SPSS, Chicago, Ill.) and the Pearson's r value greater than 0.400 was considered to be positively correlated. All results are presented in the tables as least square means±standard error of the means (SEM).

IL-1β = test: Cytokine gene expression in colonic tissue (qPCR): IL-1β; assay type: in vivo, porcine; conditions: day 12, normalised relative quantity
Experimental: (§1) Tissue samples were collected from the mesenteric side of the colon, rinsed with ice-cold sterile phosphate-buffered saline (Oxoid, Basingstoke, UK) and stripped of overlying smooth muscle. The samples were then cut into small pieces using a sterile scalpel blade and stored in 15 ml of RNAlater™ (Applied biosystems, Foster city, CA, USA) overnight followed by storage at −20° C. prior to RNA extraction. Total RNA was extracted from the colonic tissue samples using a GenElute Mammalian Total RNA Miniprep Kit (Sigma-Aldrich Corporation, St Louis, Mo., USA) according to the manufacturer's instructions. […] The total RNA was quantified and assessed for purity using the NanoDrop-ND1000 Spectrophotometer (Thermo Fisher Scientific Inc. MA, USA). The quality of the total RNA was determined by visualizing on an ethidium bromide stained 1% agarose gel. […]
(§2) qPCR was carried out to quantify the following two sets of targets: the first set of target are a selected panel of cytokine genes; Interleukins (IL-1a, IL-1β, IL-4, IL-6, IL-8, IL-10, IL-17A, IL-21), Interferon (IFN-γ), Tumor Necrosis Factor (TNFα), Transforming growth factor (TGF-β) and Forkhead box P3 (FOXP3). […]
(§3) Mean Ct values were converted to relative quantities using the formula, Relative quantity=(PCR efficiency) ΔCt, where ΔCt is the change in the Ct values of the sample relative to the highest expression (minimum Ct value). […]

weaning piglet = conditions: previous experiments, cited from earlier work
[1] = test system: selected panel of bacterial groups; test: qPCR of the other selected bacterial groups in colonic digesta; assay type: in vivo, pig; conditions: day 12
Experimental: (§4) At day 12, all the pigs were sacrificed following a lethal injection of Euthatal (pentobarbitone sodium BP-Merial Animal Ltd, Sandringham House, Essex, UK) at a rate of […] live body weight. In sterile conditions, the digestive tract was removed and tissue samples from colon were placed in sterile phosphate buffer saline (PBS) (Oxoid, Basingstoke, UK). The digesta samples were recovered aseptically from caecum and colon and transported on ice to proper storage conditions.
(§5) To evaluate the effect of feed additives on the microbiota, samples of digesta contents (approximately 10 g) were recovered from the caecum and colon of each animal in sterile conditions immediately after slaughter. […] Quantity and quality of DNA were assessed using a Nanodrop (Nanodrop, ND1000; Thermo Scientific, Wilmington, Del.).
(§6) A combined aliquot of bacterial genomic DNA from all animals were used for preparation of standard curves. […] Thermal cycling conditions used were similar to the condition described below for quantitative real-time PCR. Standard curves were subsequently generated by quantitative real-time PCR of serial dilutions of these amplicons using the same genus and species-specific primers to permit absolute quantification based on gene copy number (Lee et al., 2006). […] The dry matter (DM) of the digesta was determined after drying overnight at 103° C. […]

IL-17 = test: Cytokine gene expression in colonic tissue (qPCR): IL-17; assay type: in vivo, porcine; conditions: day 12, normalised relative quantity
Experimental: as §1, §2, §3

IL-1α = test: Cytokine gene expression in colonic tissue (qPCR): IL-1α; assay type: in vivo, porcine; conditions: day 12, normalised relative quantity
Experimental: as §1, §2, §3

IL-8 = test: Cytokine gene expression in colonic tissue (qPCR): IL-8; assay type: in vivo, porcine; conditions: day 12, normalised relative quantity
Experimental: as §1, §2, §3

TGF-β = test: Cytokine gene expression in colonic tissue (qPCR): TGF-β; assay type: in vivo, porcine; conditions: day 12, normalised relative quantity
Experimental: as §1, §2, §3

Bifidobacteria spp. = test: qPCR of bacterial groups in digesta: Bifidobacteria; assay type: in vivo, pig; conditions: day 12
Experimental: as §4, §5, §6

Bacteroidetes = test: qPCR of bacterial groups in digesta: Bacteroidetes; assay type: in vivo, pig; conditions: caecal digesta, day 12
Experimental: as §4, §5, §6

SMILES: [O]=[Zn] [ZnO, zinc oxide]
- Gain to feed (Day 0-12) (weaning piglets; Day 0-12): 0.26 kg/kg
- OADG (overall average daily gain) (Day 0-12) (weaning piglets; Day 0-12): 0.10 kg/day
- OFI (overall feed intake) (Day 0-12) (weaning piglets; Day 0-12): 0.37 kg/day
- Weight (kg) Weight 0-6 (weaning piglets; Weight 0-6): 7.53 kg
- Weight (kg) Weight 6-12 (weaning piglets; Weight 6-12 (end of experiment)): 8.64 kg and 8.64^a kg
- IL-1β expression (IL-1β): 0.010 RQ
- anti-inflammatory activity in the weaning piglet gut (weaning piglet; weaning piglet gut): anti-inflammatory activity
- overall growth performance parameters (weaning piglet; weaning piglet): improved
- bacterial copy numbers of any other bacterial group [1]: No change
- IL-17 expression (IL-17): 0.061 RQ
- IL-1α expression (IL-1α): 0.006 RQ
- IL-8 expression (IL-8): 0.003 RQ
- TGF-β expression (TGF-β): 0.183 RQ
- Bifidobacteria spp. numbers (Bifidobacteria spp.; caecal digesta): 8.94 log10 bacteria/g DM digesta
- abundance of Bifidobacteria copy numbers (Bifidobacteria spp.; colonic digesta): 8.96 log10 bacteria/g DM digesta
- abundance of Bacteroidetes copy numbers (Bacteroidetes): 12.60 log10 bacteria/g DM digesta
